A short description of data set [1]: In vitro cytotoxicity against murine macrophages (alamarBlue). The following applies: mouse, J774A.1 murine macrophages (ATCC TIB-67), murine macrophages J774A.1, 24 h, mean ± SD. It counts as cell-based. As for the experimental part: Murine macrophages from the J774A.1 cell line (ATCC® TIB-67) were maintained in Dulbecco’s Modified Eagle’s medium (DMEM) in order to evaluate the toxicity of the compounds. In addition, 10% (v/v) FBS and 10 μg/mL gentamicin (Sigma-Aldrich, Madrid, Spain) were added to the growth medium. Cells were grown in a 5% CO2 atmosphere at 37 °C.
For the cytotoxicity assays, the same protocol as detailed in Section 4.4 above was used. Murine macrophages were incubated with serial dilutions of the evaluated compounds at 37 °C in a 5% CO2 atmosphere over 24 h. The obtained data were analyzed as described in the previous section in order to calculate the CC50.
(§1) The in vitro IC50, IC90, and CC50 of the compounds were determined by a non-linear regression with a 95% confidence limit. The SigmaPlot 12.0 software (Systat Sofware Inc., London, UK) was used to perform the data analysis using a paired two-tailed t-test. Values of p < 0.05 were considered significant. The data represent the mean value and the SD of the conducted three different experiments.

For data set [2], the system named is N. fowleri ATCC® 30808 trophozoites. Briefly: ROS production (CellROX Deep Red). Format: cell-based, Naegleria fowleri. The following applies: IC90 of compound, 24 h. How it is done:
The evaluation of the programmed cell death induction by the meroterpenoids was performed in the ATCC® 30808™ N. fowleri trophozoites. Cells were incubated over 24 h with the IC90 (Table 1) of the compounds at 37 °C. In these experiments, the presence of different metabolic events which are characteristics of the programmed cell death process were evaluated. For this, five different apoptosis events marker kits (the Hoechst 33342/Propidium Iodide, SYTOX™ Green kit, CellROX® Deep Reagent, JC-1 Mitochondrial Membrane Potential Detection Kit, and the Celltiter-Glo® Luminescent Cell Viability Assay) were used according to manufacturer’s instructions. Furthermore, the percentage of stained cells was determined after incubating the treated and non-treated cells with the stains. The determination of ROS generation was carried out using the CellROX Deep Red fluorescent assay (Thermo Fisher Scientific) following manufacturer’s instructions. Briefly, N. fowleri’s trophozoites were incubated with compounds over 24 h at 37 °C. After that, the CellROX stain was added and incubated with the cells for 30 min in the dark. […] In the PCD assays, the number of stained and unstained cells was measured after the performance of the experiments. Regarding the JC-1 Mitochondrial Membrane Potential assays, the ratio between the emitted red fluorescence (at 595 nm) and green fluorescence (at 535 nm) was determined. For each kit, images (×40) with at least 80 cells were selected and analyzed. […] The graphs illustrate the mean value ± SD of three different tests. Finally, a one-way analysis of variance (ANOVA) was assessed to determine the statistical differences between the treated cells and the negative control amoebae, ** p < 0.01; *** p < 0.001; **** p < 0.0001 significant differences.

A further data set concerns N. fowleri ATCC® 30215. Briefly: In vitro activity against N. fowleri trophozoites (alamarBlue), strain ATCC 30215. Conditions: Naegleria fowleri, ATCC30215, 48 h, mean ± SD. It counts as cell-based. As for the experimental part: (§2) The in vitro activity against N. fowleri trophozoites was evaluated in two different strains from the American Type Culture Collection (LG Promochem, Barcelona, Spain), ATCC® 30808™ and ATCC® 30215™. Cells were axenically grown in 2% Bactocasitone (w/v) medium (Thermo Fisher Scientific, Madrid, Spain) at 37 °C. Moreover, 10% (v/v) of fetal bovine serum (FBS) 0.3 μg/mL of Penicillin G Sodium Salt and 0.5 mg/mL of Streptomycin sulphate (Sigma-Aldrich, Madrid, Spain) were also added to the Bactocasitone medium.
(§3) For these assays, a colorimetric assay was conducted using the alamarBlue® reagent. Briefly, N. fowleri trophozoites were seeded in duplicate in a 96-well microtiter plate. After that, different concentrations of the evaluated meroterpenoids diluted in fresh Bactocasitone were added to the wells. The negative control consisted on the trophozoites incubated with the medium alone. Lastly, the alamarBlue® (Life Technologies, Madrid, Spain) reagent was added. Plates were incubated in slight agitation at 37 °C. After 48 h, the fluorescence of the wells was analyzed in an EnSpire Multimode Plate Reader (Perkin Elmer, Madrid, Spain) using a wavelength of excitation of 570 nm and a wavelength of emission of 585 nm.
(§4) In order to calculate the IC50 and IC90, a nonlinear regression analysis with a 95% confidence limit was performed.
as §1

The test system of data set [3] is N. fowleri ATCC® 30808 trophozoites. Briefly: Mitochondrial membrane potential (JC-1). Format: cell-based, Naegleria fowleri. Conditions: IC90 of compound, 24 h. As for the experimental part:
The evaluation of the programmed cell death induction by the meroterpenoids was performed in the ATCC® 30808™ N. fowleri trophozoites. Cells were incubated over 24 h with the IC90 (Table 1) of the compounds at 37 °C. In these experiments, the presence of different metabolic events which are characteristics of the programmed cell death process were evaluated. For this, five different apoptosis events marker kits (the Hoechst 33342/Propidium Iodide, SYTOX™ Green kit, CellROX® Deep Reagent, JC-1 Mitochondrial Membrane Potential Detection Kit, and the Celltiter-Glo® Luminescent Cell Viability Assay) were used according to manufacturer’s instructions. Furthermore, the percentage of stained cells was determined after incubating the treated and non-treated cells with the stains. The mitochondrial damage was evaluated using two different reagents. Firstly, the JC-1 Mitochondrial Membrane Potential Detection Kit (Cayman Chemicals Vitro SA, Madrid, Spain) was used to assess the failure of the mitochondrial membrane potential. Cells were incubated with the compounds at 37 °C to finally add the JC-1 reagent after 24 h. The JC-1 dye is presented in the mitochondria of untreated cells in aggregate form and emits red fluorescence. However, when the membrane potential decreases (unhealthy cells) the dye is presented in monomers, emitting green fluorescence. Images were obtained with an EVOS™ M5000 Imaging System (Invitrogen by Thermo Fisher Scientific). In the PCD assays, the number of stained and unstained cells was measured after the performance of the experiments. Regarding the JC-1 Mitochondrial Membrane Potential assays, the ratio between the emitted red fluorescence (at 595 nm) and green fluorescence (at 535 nm) was determined. For each kit, images (×40) with at least 80 cells were selected and analyzed. […] The graphs illustrate the mean value ± SD of three different tests. Finally, a one-way analysis of variance (ANOVA) was assessed to determine the statistical differences between the treated cells and the negative control amoebae, ** p < 0.01; *** p < 0.001; **** p < 0.0001 significant differences.

The test system of the next data set is N. fowleri ATCC® 30808. Briefly: In vitro activity against N. fowleri trophozoites (alamarBlue), strain ATCC 30808. Format: cell-based, Naegleria fowleri. The following applies: for IC50 / IC90: Naegleria fowleri; for Anti-Naegleria activity (in words): both tested strains of N. fowleri. As for the experimental part:
as §2, §3, §4, §1
For orientation: Alamar Blue is a resazurin reagent that responds to reducing activity.

Setting [4] is: ATCC 30215 / ATCC 30808, range over the named compounds and both strains (ATCC 30808 and ATCC 30215), read-out: IC50 against N. fowleri.
Where [5] appears, read: ATCC30808, N. fowleri trophozoites, 48 h, alamarBlue, mean ± SD.
Where [6] appears, read: ATCC30808, N. fowleri trophozoites, 48 h, alamarBlue, mean ± SD, read-out: IC50 ATCC® 30808.

Read-outs that look alike come from different tables or passages of the source.

We go through 4 compounds from publication PMC10384572, “Marine Meroterpenoids Isolated from Gongolaria abies-marina Induce Programmed Cell Death in Naegleria fowleri” (Pharmaceuticals, 2023).

What is called CC50 is the concentration at which the toxic effect on the cells reaches its halfway point. A higher CC50 goes with better tolerance by the cells. As a reminder, the IC50 is the midpoint of a concentration-inhibition curve. A word on the IC90: it is the concentration at which the effect reaches the 90% level. In data set [1], `COc1c(C)cc(O)cc1C/C=C(\C)CC(=O)/C=C(\C)CCC[C@@H](C)C(=O)/C=C/C(C)(C)O` [1′Methoxyamentadione (3), 1′-methoxyamentadione] showed a CC50 at 24 h of 26.2 ± 2.25 µM. In addition, the CC90 at 24 h in data set [1] turned out to be 68.7 ± 7.46 µM. In addition, in data set [2], the “ROS production versus negative control (CellROX deep red)” value (from here on “ROS production versus negative control”) is given as “increased the level of ROS production”. The IC50 in the data set on N. fowleri ATCC® 30215 was 16.5 ± 0.96 µM; with N. fowleri ATCC® 30808 (setting [4]), 13.3 to 20.4 µM; in the data set with N. fowleri ATCC® 30808 (setting [6]) it was 19.9 ± 5.27 µM. Besides, the IC90 with N. fowleri ATCC® 30215 amounted to 59.7 ± 20.2 µM; in the data set on N. fowleri ATCC® 30808 (setting [5]), 64.9 ± 6.94 µM. Moreover, in data set [3], the “Mitochondrial membrane potential (JC-1)” value is “mitochondrial membrane potential disruption”. For the same compound, the “Anti-Naegleria activity (in words)” value in the data set on N. fowleri ATCC® 30808 is given as “active”.

Consider `COc1c(C)cc(O)cc1C/C=C(\C)CC(=O)/C=C(/C)CCC[C@@H](C)C(=O)/C=C/C(C)(C)O` [6Z-1′Methoxyamentadione (2), 6Z-1′-methoxyamentadione], for which, in data set [1], half-maximal cytotoxicity (CC50 at 24 h) was put at 26.6 ± 4.03 µM. In addition, the CC90 at 24 h in data set [1] stood at 67.2 ± 6.32 µM. For the same compound, the “ROS production versus negative control” value in data set [2] is listed as “increased the level of ROS production”. Besides, the values for the IC50 with N. fowleri ATCC® 30215, in the data set on N. fowleri ATCC® 30808 (setting [4]) and in the data set on N. fowleri ATCC® 30808 (setting [6]) were 13.3 ± 0.96 µM, 13.3 to 20.4 µM and 20.4 ± 4.07 µM, respectively. The IC90 stood at 44.2 ± 14.9 µM in the data set with N. fowleri ATCC® 30215 and 55.3 ± 8.28 µM in the data set on N. fowleri ATCC® 30808 (setting [5]). For the same compound, the “Mitochondrial membrane potential (JC-1)” value in data set [3] is “mitochondrial membrane potential disruption”. In addition, the “Anti-Naegleria activity (in words)” value with N. fowleri ATCC® 30808 is “active”.

As to `COc1c(C)cc(O)cc1C/C=C(\C)CC(=O)/C=C(\C)CCCC(C)=O` [Cystomexicone B (6), cystomexicone B], in data set [1], the CC50 at 24 h was > 279 µM and the CC90 at 24 h was > 500 µM. Also, the “ROS production versus negative control” value in data set [2] is on record as “increased the level of ROS production”. In the data set with N. fowleri ATCC® 30215, this compound registered an IC50 of 58.1 ± 5.85 µM and an IC90 of 260 ± 41.1 µM. For the same compound, the “Mitochondrial membrane potential (JC-1)” value in data set [3] was “mitochondrial membrane potential disruption”. The same compound displayed an IC90 in the data set with N. fowleri ATCC® 30808 (setting [5]) of 206 ± 16.6 µM. Besides, the IC50 with N. fowleri ATCC® 30808 (setting [6]) stood at 58.9 ± 10.1 µM. Moreover, the “Anti-Naegleria activity (in words)” value with N. fowleri ATCC® 30808 is “active”. The “Selectivity index (SI)” value in the data set with N. fowleri ATCC® 30808 (cytotoxicity in murine macrophages versus activity against N. fowleri) is > 8.5.

In data set [1], `COc1c(C)cc(O)cc1C/C=C(\C)CC(=O)C/C(C)=C/CC[C@@H](C)C(=O)/C=C/C(C)(C)O` [Gongolarone B (1), gongolarone B] registered a CC50 at 24 h of 25.6 ± 4.16 µM and a CC90 at 24 h of 72.9 ± 5.94 µM. Also, the “ROS production versus negative control” value in data set [2] was “increased the level of ROS production”. In the data set with N. fowleri ATCC® 30215, the IC50 worked out at 18.9 ± 0.94 µM and the IC90 worked out at 68.3 ± 1.73 µM. Besides, the “Mitochondrial membrane potential (JC-1)” value in data set [3] is listed as “mitochondrial membrane potential disruption”. This compound also came in with an IC90 with N. fowleri ATCC® 30808 (setting [5]) of 58 ± 1.73 µM. In addition, in the data set with N. fowleri ATCC® 30808 (setting [6]), the IC50 stood at 21.9 ± 1.6 µM. For the same compound, the “Anti-Naegleria activity (in words)” value in the data set with N. fowleri ATCC® 30808 was “active”.
